According to ChEMBL document CHEMBL4825682, “Discovery of novel purinylthiazolylethanone derivatives as anti-Candida albicans agents through possible multifaceted mechanisms” (Eur J Med Chem, 2021):
Values after ≈ are worked out from the molar mass of the structure shown. Active and inactive are the calls of the source. The rule behind the calls is not given here.

Legend:
[1] = Hemolytic activity in human RBC; type: cell-based, Erythrocyte; conditions: human red blood cells (erythrocytes)
Candida albicans [2] = test: Antifungal activity against Candida albicans ATCC 90023 assessed as fungal growth inhibition by CLSI protocol based microbroth dilution method; type: functional
Candida parapsilosis = test: Antifungal activity against Candida parapsilosis ATCC 22019 assessed as fungal growth inhibition by CLSI protocol based microbroth dilution method; type: functional; conditions: Lodderomyces parapsilosis
Candida albicans [3] = test: Antifungal activity against Candida albicans assessed as fungal growth inhibition by CLSI protocol based microbroth dilution method; type: functional
Aspergillus fumigatus = test: Antifungal activity against Aspergillus fumigatus assessed as fungal growth inhibition by CLSI protocol based microbroth dilution method; type: functional
Candida tropicalis [4] = test: Antifungal activity against Candida tropicalis assessed as fungal growth inhibition by CLSI protocol based microbroth dilution method; type: functional
Candida albicans [5] = test: Antifungal activity against Candida albicans measured after 8 passages; type: functional, organism-based
[6] = Hemolytic activity in human RBC at 8 times MIC relative to control; type: ADME, cell-based, Erythrocyte; conditions: human red blood cells (erythrocytes), read-out: Activity
Cell wall [7] = test: Induction of cell wall damage in Candida albicans; type: subcellular
Cell membrane [8] = test: Induction of cell membrane destruction in Candida albicans assessed as reduction in LDH activity at 4 times MIC relative to control; type: subcellular; set-up: scale not given: the % may be the effect or the level left
Candida tropicalis [9] = test: Potentiation of fluconazole-induced antifungal activity against Candida tropicalis assessed as fluconazole MIC (reference value: […] ug/ml); type: functional
[10] = Hemolytic activity in human RBC at MIC relative to control; type: ADME, cell-based, Erythrocyte; conditions: human red blood cells (erythrocytes), read-out: Activity
Cell wall [11] = test: Induction of cell wall damage in Candida tropicalis; type: subcellular
Candida albicans [12] = test: Induction of oxidative stress in Candida albicans assessed as increase in ROS generation by […] probe based assay; type: functional, organism-based
Candida albicans [13] = test: Antifungal activity against Candida albicans measured after 16 passages; type: functional, organism-based
Candida albicans [14] = test: Induction of reactive nitrogen species generation in Candida albicans assessed as increase in NO level at 6 times MIC by Greiss reagent assay relative to control; type: functional
Candida albicans [15] = test: Potentiation of fluconazole-induced antifungal activity against Candida albicans assessed as fluconazole MIC (reference value: […] ug/ml); type: functional
Candida tropicalis [16] = test: Additive antifungal activity against Candida tropicalis assessed as fractional inhibitory concentration index in presence of fluconazole; type: functional
Candida albicans [17] = test: Antifungal activity against Candida albicans assessed as reduction in metabolic activity at 0.5 to 6 times MIC by resazurin assay; type: functional, organism-based
Cell wall [18] = test: Induction of cell wall damage in Aspergillus fumigatus; type: subcellular
Cell membrane [19] = test: Induction of cell membrane disruption in Candida albicans assessed as increase in protein leakage by Bradford assay; type: subcellular
L02 [20] = test: Cytotoxicity against human L02 cells at 100 ug/ml measured after 72 hrs by CCK8 assay; type: cell-based; conditions: l02, 72 h, dose 100 µg/ml
Candida albicans [21] = test: Synergistic antifungal activity against Candida albicans assessed as fractional inhibitory concentration index in presence of fluconazole; type: functional
Cell membrane [22] = test: Induction of cytoplasmic membrane depolarization in Candida albicans by diSC3(5)-dye based assay; type: subcellular
Cell membrane [23] = test: Induction of cell membrane permeabilization in Candida albicans up to 6 times MIC by propidium iodide staining based fluorescence assay; type: subcellular
Candida albicans [24] = test: Antibiofilm activity against Candida albicans assessed as inhibition of biofilm formation at 0.5 to 5 times MIC by Alamar blue assay; type: functional, organism-based
Candida albicans [25] = test: Induction of oxidative stress in Candida albicans assessed as decrease in cellular GSH level; type: functional, organism-based
L02 [26] = test: Cytotoxicity against human L02 cells assessed as increase in cell viability measured after 72 hrs by CCK8 assay relative to control; type: cell-based; conditions: l02, 72 h
Cell membrane [27] = test: Induction of cell membrane destruction in Candida albicans assessed as reduction in LDH activity at MIC relative to control; type: subcellular; set-up: scale not given: the % may be the effect or the level left

CCN1CCN(c2ncnc3c2ncn3CC(=O)c2nccs2)CC1
HC50 [1]: > 256 µg/mL
MIC (Candida albicans [2]): 16 µg/mL (≈ 44.8 µM)
MIC (Candida parapsilosis): 256 µg/mL (≈ 716 µM)
MIC (Candida albicans [3]): 32 µg/mL (≈ 89.5 µM)
MIC (Aspergillus fumigatus): 32 µg/mL (≈ 89.5 µM)
MIC (Candida tropicalis [4]): 16 µg/mL (≈ 44.8 µM)

O=C(Cn1cnc2c(N3CCN(Cc4ccccc4F)CC3)ncnc21)c1nccs1
HC50 [1]: > 256 µg/mL
MIC (Candida albicans [2]): 2 µg/mL (≈ 4.57 µM)
MIC (Candida parapsilosis): 256 µg/mL (≈ 585 µM)
MIC (Candida albicans [3]): 256 µg/mL (≈ 585 µM)
MIC (Aspergillus fumigatus): 32 µg/mL (≈ 73.1 µM)
MIC (Candida tropicalis [4]): 256 µg/mL (≈ 585 µM)

CCO/N=C(/Cn1cnc2c(N3CCN(CC(=O)OCC)CC3)ncnc21)c1nccs1
HC50 [1]: > 256 µg/mL
MIC (Candida albicans [2]): 64 µg/mL (≈ 140 µM)
MIC (Candida parapsilosis): 128 µg/mL (≈ 279 µM)
MIC (Candida albicans [3]): 64 µg/mL (≈ 140 µM)
MIC (Aspergillus fumigatus): 128 µg/mL (≈ 279 µM)
MIC (Candida tropicalis [4]): 128 µg/mL (≈ 279 µM)

O=C(Cn1cnc2c(N3CCN(CC(=O)N4CCCC4)CC3)ncnc21)c1nccs1
HC50 [1]: > 256 µg/mL
MIC (Candida albicans [2]): 256 µg/mL (≈ 581 µM)
MIC (Candida parapsilosis): 128 µg/mL (≈ 291 µM)
MIC (Candida albicans [3]): 2 µg/mL (≈ 4.54 µM)
MIC (Aspergillus fumigatus): 64 µg/mL (≈ 145 µM)
MIC (Candida tropicalis [4]): 32 µg/mL (≈ 72.6 µM)

CC(C)(C)OC(=O)N1CCN(C(=O)CN2CCN(c3ncnc4c3ncn4CC(=O)c3nccs3)CC2)CC1
HC50 [1]: > 256 µg/mL
MIC (Candida albicans [2]): 16 µg/mL (≈ 28.8 µM)
MIC (Candida parapsilosis): 128 µg/mL (≈ 230 µM)
MIC (Candida albicans [3]): 32 µg/mL (≈ 57.6 µM)
MIC (Aspergillus fumigatus): 128 µg/mL (≈ 230 µM)
MIC (Candida tropicalis [4]): 64 µg/mL (≈ 115 µM)

O=C(Cn1cnc2c(N3CCCCC3)ncnc21)c1nccs1
HC50 [1]: > 256 µg/mL
MIC (Candida albicans [2]): 256 µg/mL (≈ 780 µM)
MIC (Candida parapsilosis): 64 µg/mL (≈ 195 µM)
MIC (Candida albicans [3]): 1 µg/mL (≈ 3.05 µM)
MIC (Aspergillus fumigatus): 128 µg/mL (≈ 390 µM)
MIC (Candida tropicalis [4]): 64 µg/mL (≈ 195 µM)

OC(Cn1cncn1)(Cn1cncn1)c1ccc(F)cc1F [FLUCONAZOLE]
HC50 [1]: > 256 µg/mL
MIC (Candida albicans [2]): 2 µg/mL (≈ 6.53 µM)
MIC (Candida parapsilosis): 4 µg/mL (≈ 13.1 µM)
Activity (Candida albicans [5]): Active
MIC (Candida albicans [3]): 4 µg/mL (≈ 13.1 µM)
MIC (Aspergillus fumigatus): 256 µg/mL (≈ 836 µM)
MIC (Candida tropicalis [4]): 8 µg/mL (≈ 26.1 µM)

CCCCN1CCN(c2ncnc3c2ncn3CC(=O)c2nccs2)CC1
HC50 [1]: > 256 µg/mL
MIC (Candida albicans [2]): 64 µg/mL (≈ 166 µM)
MIC (Candida parapsilosis): 64 µg/mL (≈ 166 µM)
MIC (Candida albicans [3]): 4 µg/mL (≈ 10.4 µM)
MIC (Aspergillus fumigatus): 256 µg/mL (≈ 664 µM)
MIC (Candida tropicalis [4]): 128 µg/mL (≈ 332 µM)

CCOC(=O)CN1CCN(c2ncnc3c2ncn3C/C(=N/OC)c2nccs2)CC1
HC50 [1]: > 256 µg/mL
MIC (Candida albicans [2]): 64 µg/mL (≈ 144 µM)
MIC (Candida parapsilosis): 128 µg/mL (≈ 288 µM)
MIC (Candida albicans [3]): 8 µg/mL (≈ 18 µM)
MIC (Aspergillus fumigatus): 32 µg/mL (≈ 72 µM)
MIC (Candida tropicalis [4]): 64 µg/mL (≈ 144 µM)

CCOC(=O)CN1CCN(c2ncnc3c2ncn3CC(=O)c2nccs2)CC1
hemolysis at 8 x MIC [6]: 3.8%
HC50 [1]: > 256 µg/mL
Activity (Cell wall [7]): Active
Activity (Cell membrane [8]): 50%
MIC (Candida tropicalis [9]): 8 µg/mL
MIC (Candida albicans [2]): 16 µg/mL (≈ 38.5 µM)
hemolysis at 1 x MIC [10]: 2.6%
Activity (Cell wall [11]): Active
Activity (Candida albicans [12]): Dose-Dependent Effect
Activity (Candida albicans [13]): Active
fold change (FC) (Candida albicans [14]): 3.6
MIC (Candida albicans [15]): 0.0625 µg/mL
fractional inhibitory concentration index (FICI) (Candida tropicalis [16]): 1.02
Activity (Candida albicans [17]): Active
MIC (Candida parapsilosis): 8 µg/mL (≈ 19.3 µM)
Activity (Cell wall [18]): inactive
Activity (Cell membrane [19]): Dose-Dependent Effect
Activity (L02 [20]): Toxic
fractional inhibitory concentration index (FICI) (Candida albicans [21]): 0.56
Activity (Cell membrane [22]): Active
Activity (Cell membrane [23]): Active
inhibition (Candida albicans [24]): Active
Activity (Candida albicans [25]): Active
Activity (L02 [26]): > 60%
Activity (Cell membrane [27]): 30%
MIC (Candida albicans [3]): 1 µg/mL (≈ 2.41 µM)
MIC (Aspergillus fumigatus): 16 µg/mL (≈ 38.5 µM)
MIC (Candida tropicalis [4]): 8 µg/mL (≈ 19.3 µM)

C#CCN1CCN(c2ncnc3c2ncn3CC(=O)c2nccs2)CC1
HC50 [1]: > 256 µg/mL
MIC (Candida albicans [2]): 16 µg/mL (≈ 43.5 µM)
MIC (Candida parapsilosis): 256 µg/mL (≈ 697 µM)
MIC (Candida albicans [3]): 256 µg/mL (≈ 697 µM)
MIC (Aspergillus fumigatus): 32 µg/mL (≈ 87.1 µM)
MIC (Candida tropicalis [4]): 256 µg/mL (≈ 697 µM)

CCOC(=O)CN1CCN(c2ncnc3c2ncn3CC(O)c2nccs2)CC1 (centres undefined)
HC50 [1]: > 256 µg/mL
MIC (Candida albicans [2]): 64 µg/mL (≈ 153 µM)
MIC (Candida parapsilosis): 128 µg/mL (≈ 307 µM)
MIC (Candida albicans [3]): 128 µg/mL (≈ 307 µM)
MIC (Aspergillus fumigatus): 32 µg/mL (≈ 76.6 µM)
MIC (Candida tropicalis [4]): 64 µg/mL (≈ 153 µM)

N#CCN1CCN(c2ncnc3c2ncn3CC(=O)c2nccs2)CC1
HC50 [1]: > 256 µg/mL
MIC (Candida albicans [2]): 256 µg/mL (≈ 695 µM)
MIC (Candida parapsilosis): 8 µg/mL (≈ 21.7 µM)
MIC (Candida albicans [3]): 8 µg/mL (≈ 21.7 µM)
MIC (Aspergillus fumigatus): 16 µg/mL (≈ 43.4 µM)
MIC (Candida tropicalis [4]): 4 µg/mL (≈ 10.9 µM)

C=CCN1CCN(c2ncnc3c2ncn3CC(=O)c2nccs2)CC1
HC50 [1]: > 256 µg/mL
MIC (Candida albicans [2]): 64 µg/mL (≈ 173 µM)
MIC (Candida parapsilosis): 8 µg/mL (≈ 21.7 µM)
MIC (Candida albicans [3]): 4 µg/mL (≈ 10.8 µM)
MIC (Aspergillus fumigatus): 64 µg/mL (≈ 173 µM)
MIC (Candida tropicalis [4]): 32 µg/mL (≈ 86.6 µM)

O=C(Cn1cnc2c(N3CCNCC3)ncnc21)c1nccs1
HC50 [1]: > 256 µg/mL
MIC (Candida albicans [2]): 32 µg/mL (≈ 97.1 µM)
MIC (Candida parapsilosis): 256 µg/mL (≈ 777 µM)
MIC (Candida albicans [3]): 64 µg/mL (≈ 194 µM)
MIC (Aspergillus fumigatus): 64 µg/mL (≈ 194 µM)
MIC (Candida tropicalis [4]): 32 µg/mL (≈ 97.1 µM)

O=C(Cn1cnc2c(N3CCN(CCO)CC3)ncnc21)c1nccs1
HC50 [1]: > 256 µg/mL
MIC (Candida albicans [2]): 256 µg/mL (≈ 686 µM)
MIC (Candida parapsilosis): 128 µg/mL (≈ 343 µM)
MIC (Candida albicans [3]): 1 µg/mL (≈ 2.68 µM)
MIC (Aspergillus fumigatus): 64 µg/mL (≈ 171 µM)
MIC (Candida tropicalis [4]): 64 µg/mL (≈ 171 µM)
